Reference: patent publication US7041446B2, “Labeled protein and its producing method, labeling compound to be used in the method, and method for analyzing function of genes” (priority 1998, dated 2006)

Legend:
[1] = system: C-terminal of thioredoxin; experiment: Labeling of translated protein in cell-free transcription-translation system of E. coli; assay type: biochemical; conditions: for linkage to the C-terminal of thioredoxin: cell-free transcription-translation system of E. coli
Protocol: rCpPur (30 pmol) was phosphorylated by T4 polynucleotide kinase (10 units) in the presence of γ-^33P-ATP (9.25 MBq). The reaction was carried out under the condition of 37° C. for 1 hour. After the reaction was over, the reaction mixture was heated at 70° C. for 20 minutes to inactivate the enzyme.
Labeling reaction was carried out using a cell-free transcription-translation system of E. coli. The reaction mixture (25 μl) of the cell-free transcription-translation system of E. coli had the following composition: 7.5 μl of E. coli S30 extract (containing T7 RNA polymerase), 10 μl of E. coli S30 premix, 2.5 μl of an amino acid mixed solution, 1 μl of an RNase inhibitor, 1 μg of plasmid (thioredoxin), and 0.0003 to 0.3 μM (final concentration) of the ^33P-rCpPur described above. As a control, the reaction was carried out also in a system containing ^35S-methionine (1.2 μM). After the reaction was carried out at 37° C. for 30 minutes, precipitation was performed with acetone. A buffer solution (pH 8) containing 1% SDS was added to the precipitate, and then heated at 90° C. for 5 minutes for dissolution, separated by SDS-15% polyacrylamide gel electrophoresis, and analyzed using an image analyzer (Fuji Photo Film, BAS 2000). […] When the concentration of ^33P-rCpPur was 0.3 μM, a distinct band corresponding to the full-length thioredoxin was detected at the position of apparent molecular weight of 12 kDa. […] The band with an apparent molecular weight of 12 kDa was detected even when labeled with ^35S-methionine (final concentration: 1.2 μM) (FIG. 3).
Fluorescent labeling of a protein by a cell-free transcription-translation system of E. coli in the presence of Fluorpur and Fluorthiopur was examined. […] After the reaction was carried out at 37° C. for 30 minutes, precipitation was performed with acetone. A buffer solution (pH 8) containing 1% SDS was added to the precipitate, then heated at 90° C. for 5 minutes for dissolution, separated by SDS-15% polyacrylamide gel electrophoresis, and detected for fluorescent bands of protein using a fluorescent gel scanner (Fluor Imager 585, Molecular Dynamics). Measurement was made at an excitation wavelength of 488 nm and an emission wavelength of 520 nm. FIGS. 4A, 4B and 4C show the results of fluorescent labeling of thioredoxin with Fluorpur and Fluorthiopur. For both Fluorpur and Fluorthiopur in a concentration ranges of 0.36 to 1.44 μM, fluorescent bands were detected at the position of apparent molecular weight of 12 kDa indicated by an arrow (FIGS. 4A and 4B).

[2] = system: protein synthesis of animal cells; conditions: cited from earlier work
[3] = system: protein synthesis of bacteria; conditions: cited from earlier work
[4] = system: full-length protein of thioredoxin; experiment: Labeling of thioredoxin in cell-free transcription-translation system containing wheat germ lysate; assay type: biochemical, E. coli
Protocol: (§1) The fluorescent labeling of the full-length protein of thioredoxin with Fluorpur and Fluorthiopur was confirmed also in a cell-free transcription-translation system containing nuclease treated rabbit reticulocyte lysate or wheat germ lysate. The respective optimal concentrations of Fluorpur and Fluorthiopur necessary for fluorescent labeling were 0.3 to 50 μM in the system containing nuclease treated rabbit reticulocyte lysate and 10 to 50 μM in the case of the system containing wheat germ lysate.

[5] = system: full-length protein of thioredoxin; experiment: Labeling of thioredoxin in cell-free transcription-translation system containing nuclease treated rabbit reticulocyte lysate; assay type: biochemical, E. coli
Protocol: as §1

Compound | band with an apparent molecular weight of 12 kDa ([1]; control label, final concentration 1.2 μM) | inhibition of protein synthesis [2] | inhibition of protein synthesis [3] | labeling of the full-length protein of thioredoxin [4] | labeling of the full-length protein of thioredoxin [5] | linkage to the C-terminal of thioredoxin [1] | incorporation compared with Fluorpur ([1]; fluorescent labeling of thioredoxin, E. coli system)
CSCC[C@H](N)C(=O)O [^35S-methionine, reference compound] | detected | – | – | – | – | – | –
COc1ccc(C[C@H](N)C(=O)N[C@H]2[C@@H](O)[C@H](n3cnc4c(N(C)C)ncnc43)O[C@@H]2CO)cc1 [puromycin, 3′-[α-amino-p-methoxyhydro-cinnamamido]-3′-deoxy-N,N′-dimethyladenosine] | – | inhibit the protein synthesis | inhibit the protein synthesis | – | – | – | –
fluoresceinylphosphopuromycin [Fluorpur] | – | – | – | can be confirmed | can be confirmed | linked to the C-terminal of the full-length protein | –
fluoresceinylthiophophopuromycin [Fluorthiopur] | – | – | – | can be confirmed | can be confirmed | linked to the C-terminal of the full-length protein | more or less efficiently
